Where two headings read alike, the source gives them in different places.
Legend:
MOLM14 F691L cells = assay: MOLM14 F691L cell viability assay (Cell Titer Glo); type: cell-based
Protocol: (§1) Both cell lines have activated FLT3 receptors, each of which carry additional resistance mutations in the kinase domain (D835Y and F691L, respectively).
(§2) MOLM14 D835Y and MOLM14 F691L cells were grown in RPMI-1640 media supplemented with 20% fetal bovine serum (FBS). For viability/cytotoxicity assessments, cells were seeded into 1536-well white polystyrene tissue culture-treated Greiner plates using a Multidrop Combi dispenser (ThermoFisher), in final volume 5 μL of growth media per well, at a density of 1000 cells per well. After cell addition, 23 nL of test compound were transferred into individual wells (22 doses tested for each test compound, with a 1:2 dilution series starting at 10 μM) via a 1536 pin-tool. Bortezomib (final concentration 2.3 μM) was used as a positive control for cell cytotoxicity. Plates were incubated for 48 hours at standard incubator conditions covered by a stainless steel gasketed lid to prevent evaporation. 48 hours post compound addition, 3 μL of Cell Titer Glo (Promega) were added to each well and plates were incubated at room temperature for 15 minutes with the stainless-steel lid in place. Luminescence readings were taken using a Viewlux imager (PerkinElmer) with a 2 second exposure time per plate.

IRAK4 = target: T1, IRAK4 (Homo sapiens, UniProt Q9NWZ3); assay: RBC HotSpot Kinase Assay, IRAK4; type: biochemical; parameters: purchased Reaction Biology (RBC HotSpot Kinase Assay)
T1 sequence (Q9NWZ3 1-460): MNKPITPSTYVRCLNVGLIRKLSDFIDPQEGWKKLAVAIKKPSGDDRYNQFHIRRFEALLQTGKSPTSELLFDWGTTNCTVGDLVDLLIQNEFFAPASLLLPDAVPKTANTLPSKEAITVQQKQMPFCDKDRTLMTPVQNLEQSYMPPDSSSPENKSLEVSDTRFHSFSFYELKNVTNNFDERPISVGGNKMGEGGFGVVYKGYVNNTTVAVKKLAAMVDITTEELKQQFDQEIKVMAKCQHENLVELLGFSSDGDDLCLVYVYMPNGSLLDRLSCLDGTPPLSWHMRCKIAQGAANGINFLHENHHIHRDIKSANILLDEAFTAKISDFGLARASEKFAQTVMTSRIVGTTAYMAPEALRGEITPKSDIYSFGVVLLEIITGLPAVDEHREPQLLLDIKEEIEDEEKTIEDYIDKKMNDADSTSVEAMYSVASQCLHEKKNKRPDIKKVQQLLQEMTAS
Summary of the method: (§3)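 Radiometric filter-binding (HotSpot) activity assay on isolated recombinant kinase, possibly truncated or catalytic domain only, in 20 mM Hepes pH 7.5, 10 mM MgCl2, 1 mM EGTA, 2 mM DTT, 1% DMSO. Compound preincubated 20 min with kinase and substrate, then ^33P-ATP added. Reaction 2 h at room temperature, read by P81 filter binding.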

THP-1-Blue NF-κB cells = assay: NF-kB SEAP reporter assay in THP-1-Blue NF-κB cells; type: cell-based; settings: 24 hours
Protocol: THP-1-Blue NF-κB cells (InvivoGen) carrying a stable integrated NF-κB-inducible secreted embryonic alkaline phosphatase (SEAP) reporter construct were plated at a concentration of 1×10^5 cells per well. The cells were stimulated with Pam3CSK4 (1 ng/mL) or hIL1B (1 ng/mL). After 10-20 minutes, the cells were then treated with vehicle (DMSO) or serial dilutions of the test compounds (10 doses tested for each test compound, with a 1:10 dilution series starting at 1 μM or 3 μM) with a final volume of 200 μL for 24 hours at 37° C. After 24 hours, the cells were centrifuged and 20 μL supernatant was incubated with 180 μL QUANTI-Blue reagent at 37° C. for 30-60 minutes. The levels of NF-κB-induced gene expression were measured in a microplate reader at 620 nm.

FLT3 = target: T2, FLT3 (Homo sapiens, UniProt P36888); assay: RBC HotSpot Kinase Assay, FLT3; type: biochemical
T2 construct: purchased Reaction Biology (RBC HotSpot Kinase Assay)
T2 sequence (P36888 564-958 limits assumed): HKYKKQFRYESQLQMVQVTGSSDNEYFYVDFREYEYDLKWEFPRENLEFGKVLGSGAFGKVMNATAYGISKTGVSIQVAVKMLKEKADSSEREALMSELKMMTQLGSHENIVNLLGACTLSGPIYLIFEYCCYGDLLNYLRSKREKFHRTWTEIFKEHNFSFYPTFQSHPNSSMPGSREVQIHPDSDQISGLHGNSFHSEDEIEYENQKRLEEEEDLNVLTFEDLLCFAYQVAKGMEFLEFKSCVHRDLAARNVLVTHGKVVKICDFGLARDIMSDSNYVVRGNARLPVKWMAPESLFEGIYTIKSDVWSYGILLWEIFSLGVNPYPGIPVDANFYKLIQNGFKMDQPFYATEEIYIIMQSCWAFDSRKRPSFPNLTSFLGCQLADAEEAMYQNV
Summary of the method: as §3

MOLM14 D835Y cells = assay: MOLM14 D835Y cell viability assay (Cell Titer Glo); type: cell-based
Protocol: as §1, §2

IRAK1 = target: T3, IRAK1 (Homo sapiens, UniProt P51617); assay: RBC HotSpot Kinase Assay, IRAK1; type: biochemical
T3 construct: purchased Reaction Biology (RBC HotSpot Kinase Assay)
Summary of the method: as §3

[1] = stimulated with Pam3CSK4 (1 ng/mL), read-out: NF-κB Pam3SCK4 IC50
[2] = stimulated with hIL1B (1 ng/mL), read-out: NF-κB IL1B IC50

T3 sequence (P51617 whole entry): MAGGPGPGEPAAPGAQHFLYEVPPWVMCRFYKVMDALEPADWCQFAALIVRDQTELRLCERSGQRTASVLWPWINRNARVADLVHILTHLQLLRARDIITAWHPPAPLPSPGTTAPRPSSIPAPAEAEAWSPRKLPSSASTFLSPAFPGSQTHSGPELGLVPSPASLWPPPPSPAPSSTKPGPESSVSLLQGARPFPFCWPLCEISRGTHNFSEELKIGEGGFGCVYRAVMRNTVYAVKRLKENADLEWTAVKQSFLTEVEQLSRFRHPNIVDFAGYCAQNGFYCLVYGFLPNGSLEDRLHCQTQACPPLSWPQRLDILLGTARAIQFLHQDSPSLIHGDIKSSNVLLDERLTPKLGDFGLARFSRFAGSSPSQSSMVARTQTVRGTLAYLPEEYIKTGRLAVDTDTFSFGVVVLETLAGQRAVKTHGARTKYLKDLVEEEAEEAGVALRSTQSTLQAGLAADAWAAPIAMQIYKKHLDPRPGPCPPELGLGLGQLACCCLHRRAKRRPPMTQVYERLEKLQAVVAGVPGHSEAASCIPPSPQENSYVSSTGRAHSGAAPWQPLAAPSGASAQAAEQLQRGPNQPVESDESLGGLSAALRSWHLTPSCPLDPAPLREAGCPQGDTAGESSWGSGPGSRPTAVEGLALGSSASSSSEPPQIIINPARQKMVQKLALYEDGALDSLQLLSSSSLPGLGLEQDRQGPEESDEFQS

Row | IC50 (MOLM14 F691L cells; Homo sapiens, MOLM-14, 48 h) [nM] | IC50 (IRAK4) [nM] | IC50 (THP-1-Blue NF-κB cells; [1]) [nM] | IC50 (THP-1-Blue NF-κB cells; [2]) [nM] | IC50 (FLT3) [nM] | IC50 (MOLM14 D835Y cells; Homo sapiens, MOLM-14, 48 h) [nM] | IC50 (IRAK1) [nM] | IC50 (MOLM14 F691L cells; 48 hours) [nM] | IC50 (MOLM14 D835Y cells; 48 hours) [nM] | Compound
1 | 6120 | 16 | 254 | 359 | < 0.5 | 1220 | 146 | – | – | COc1cc2ncc(-c3nc(N[C@@H]4CCCNC4)c(F)cc3F)n2nc1C(C)(C)O [Compound 127, (R)-2-(3-(3,5-difluoro-6-(piperidin-3-ylamino)pyridin-2-yl)-7-methoxyimidazo[1,2-b]pyridazin-6-yl)propan-2-ol]
2 | – | 7 | – | – | < 0.5 | 101 | 81 | – | – | F[C@H]1CNC[C@@H]1Nc1cccc(-c2cnc3ccc(-c4cnn5ccccc45)nn23)n1 [Compound 9, N-((3S,4S)-4-fluoropyrrolidin-3-yl)-6-(6-(pyrazolo[1,5-a]pyridin-3-yl)imidazo[1,2-b]pyridazin-3-yl)pyridin-2-amine]
3 | 388 | 1 | 135 | 254 | < 0.5 | 34 | 109 | – | – | COc1cc2ncc(-c3cccc(N[C@H]4CNCC[C@@H]4F)n3)n2nc1C1CC1 [Compound 102, 6-(6-cyclopropyl-7-methoxyimidazo[1,2-b]pyridazin-3-yl)-N-((3S,4S)-4-fluoropiperidin-3-yl)pyridin-2-amine]
4 | 29 | 0.8 | 63 | 59 | < 0.5 | 3 | 15 | – | – | COc1cc2ncc(-c3nc(N[C@@H]4CCCNC4)c(F)cc3F)n2nc1C1CC1 [Compound 106, (R)-6-(6-cyclopropyl-7-methoxyimidazo[1,2-b]pyridazin-3-yl)-3,5-difluoro-N-(piperidin-3-yl)pyridin-2-amine]
5 | 137 | < 0.5 | 18 | 15 | < 0.5 | 11 | 3 | – | – | COc1cc2ncc(-c3nc(N[C@H]4CNC[C@@H]4F)c(F)cc3F)n2nc1C1CC1 [Compound 107, 6-(6-cyclopropyl-7-methoxyimidazo[1,2-b]pyridazin-3-yl)-3,5-difluoro-N-((3S,4S)-4-fluoropyrrolidin-3-yl)pyridin-2-amine]
6 | – | 3 | – | – | < 0.5 | 402 | 194 | – | – | c1cc(N[C@@H]2CCCNC2)nc(-c2cnc3ccc(-c4cnn5ccccc45)nn23)c1 [Compound 19, (R)-N-(piperidin-3-yl)-6-(6-(pyrazolo[1,5-a]pyridin-3-yl)imidazo[1,2-b]pyridazin-3-yl)pyridin-2-amine]
7 | 673 | 3 | 93 | 121 | 0.6 | 55 | 153 | – | – | COc1cc2ncc(-c3cccc(N[C@H]4CNC[C@@H]4F)n3)n2nc1C1CC1 [Compound 96, 6-(6-cyclopropyl-7-methoxyimidazo[1,2-b]pyridazin-3-yl)-N-((3S,4S)-4-fluoropyrrolidin-3-yl)pyridin-2-amine]
8 | 1540 | 4 | 92 | 121 | < 0.5 | 109 | 135 | – | – | COc1cc2ncc(-c3nc(N[C@H]4CNC[C@@H]4F)c(F)cc3F)n2nc1C(C)(C)O [Compound 126, 2-(3-(3,5-difluoro-6-(((3S,4S)-4-fluoropyrrolidin-3-yl)amino)pyridin-2-yl)-7-methoxyimidazo[1,2-b]pyridazin-6-yl)propan-2-ol]
9 | – | 2 | – | – | 0.6 | 34 | 253 | – | – | COc1cc2ncc(-c3cccc(N[C@@H]4CCNC4)n3)n2nc1C1CC1 [Compound 97, (R)-6-(6-cyclopropyl-7-methoxyimidazo[1,2-b]pyridazin-3-yl)-N-(pyrrolidin-3-yl)pyridin-2-amine]
10 | 386 | 6 | 108 | 196 | < 0.5 | 34 | 129 | – | – | COc1cc2ncc(-c3nc(N[C@H]4CNCC[C@@H]4F)c(F)cc3F)n2nc1C(C)(C)O [Compound 128, 2-(3-(3,5-difluoro-6-(((3S,4S)-4-fluoropiperidin-3-yl)amino)pyridin-2-yl)-7-methoxyimidazo[1,2-b]pyridazin-6-yl)propan-2-ol]
11 | – | < 0.5 | – | – | < 0.5 | – | 3320 | 969 | 86 | COc1cc2ncc(-c3cccc(N[C@H]4CNC[C@@H]4F)n3)n2nc1C(C)(O)C(F)(F)F (single isomer, unassigned; fast-eluting) [Compound 133]
12 | 269 | 0.5 | 121 | 340 | 0.6 | 17 | 821 | – | – | COc1cc2ncc(-c3cccc(N[C@H]4CNC[C@@H]4C(F)(F)F)n3)n2nc1C1CC1 [Compound 99, 6-(6-cyclopropyl-7-methoxyimidazo[1,2-b]pyridazin-3-yl)-N-((3R,4S)-4-(trifluoromethyl)pyrrolidin-3-yl)pyridin-2-amine]
13 | 29 | 0.6 | 30 | 13 | < 0.5 | 3 | 5 | – | – | COc1cc2ncc(-c3nc(N[C@H]4CNCC[C@@H]4F)c(F)cc3F)n2nc1C1CC1 [Compound 108, 6-(6-cyclopropyl-7-methoxyimidazo[1,2-b]pyridazin-3-yl)-3,5-difluoro-N-((3S,4S)-4-fluoropiperidin-3-yl)pyridin-2-amine]

Source: patent US12534469B2 (CHILDREN'S HOSPITAL MEDICAL CENTER, priority 2020, dated 2026)
